Assay results reported in PubChem BioAssay AID248 (DTP/NCI, 2004).
Values joined by “and” are separate entries in the source; they are usually repeats but may differ in a detail not shown here. Equal entries are not always repeated. Toxic doses and inconclusive results are not listed.

System: L1210 leukemia ip in BDF1 mice, survival T/C
Assay: NCI In Vivo Anticancer Drug Screen. Data for tumor model L1210 Leukemia (intraperitoneal) in B6D2F1 (BDF1) mice
Settings: endpoint: mean survival time, higher = longer survival
Summary of the method: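 Read-out is survival time, reported as the treated-group measurement over the vehicle-control measurement.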

[1] = dose: 100.0 mg/kg/injection, schedule: Q04DX003 (ip), vehicle: Klucel (hydroxypropylcellulose) (HPC)
[2] = dose: 200.0 mg/kg/injection, schedule: Q04DX003 (ip), vehicle: Klucel (hydroxypropylcellulose) (HPC)
[3] = dose: 100.0 mg/kg/injection, schedule: Q01DX009 (ip), vehicle: Klucel (hydroxypropylcellulose) (HPC)
[4] = dose: 200.0 mg/kg/injection, schedule: Q01DX009 (ip), vehicle: Klucel (hydroxypropylcellulose) (HPC)
[5] = dose: 400.0 mg/kg/injection, schedule: Q04DX003 (ip), vehicle: Klucel (hydroxypropylcellulose) (HPC)
[6] = dose: 50.0 mg/kg/injection, schedule: Q01DX009 (ip), vehicle: saline with Tween-80
[7] = dose: 100.0 mg/kg/injection, schedule: Q01DX009 (ip), vehicle: saline with Tween-80
[8] = dose: 100.0 mg/kg/injection, schedule: Q04DX002 (ip), vehicle: saline with Tween-80
[9] = dose: 100.0 mg/kg/injection, schedule: Q04DX003 (ip), vehicle: saline with Tween-80
[10] = dose: 200.0 mg/kg/injection, schedule: Q01DX001 (ip), vehicle: saline with Tween-80
[11] = dose: 200.0 mg/kg/injection, schedule: Q01DX009 (ip), vehicle: saline with Tween-80
[12] = dose: 200.0 mg/kg/injection, schedule: Q04DX002 (ip), vehicle: saline with Tween-80
[13] = dose: 200.0 mg/kg/injection, schedule: Q04DX003 (ip), vehicle: saline with Tween-80
[14] = dose: 400.0 mg/kg/injection, schedule: Q04DX003 (ip), vehicle: saline with Tween-80
[15] = dose: 100.0 mg/kg/injection, schedule: Q01DX001 (ip), vehicle: saline
[16] = dose: 200.0 mg/kg/injection, schedule: Q01DX001 (ip), vehicle: saline
[17] = dose: 400.0 mg/kg/injection, schedule: Q04DX002 (ip), vehicle: saline with Tween-80

## CC(C)[As](=O)(O)O
dose: 25.0 mg/kg/injection, schedule: Q01DX009 (ip), vehicle: saline
  T/C: 97 % of control
dose: 50.0 mg/kg/injection, schedule: Q01DX009 (ip), vehicle: saline
  T/C: 90 % of control
dose: 100.0 mg/kg/injection, schedule: Q01DX009 (ip), vehicle: saline
  T/C: 104 % of control and 106 % of control

## CN=C(N)c1ccc(N=C(N)c2ccc(-c3ccc(C(N)=Nc4ccc(C(N)=NC)cc4)cc3)cc2)cc1
dose: 2.25 mg/kg/injection, schedule: Q01DX Z (ip), vehicle: carboxymethylcellulose (CMC)
  T/C: 109 % of control
dose: 4.5 mg/kg/injection, schedule: Q01DX Z (ip), vehicle: carboxymethylcellulose (CMC)
  T/C: 115 % of control
dose: 18.0 mg/kg/injection, schedule: Q01DX Z (ip), vehicle: carboxymethylcellulose (CMC)
  T/C: 184 % of control
dose: 50.0 mg/kg/injection, schedule: Q01DX Z (oral), vehicle: water
  T/C: 101 % of control
dose: 100.0 mg/kg/injection, schedule: Q01DX Z (oral), vehicle: water
  T/C: 112 % of control
dose: 200.0 mg/kg/injection, schedule: Q01DX Z (oral), vehicle: water
  T/C: 107 % of control

## Nc1ncnc2nc(N=Nc3ccc(S(=O)(=O)N(CCCl)CCCl)cc3)[nH]c12
dose: 50.0 mg/kg/injection, schedule: Q04DX003 (ip), vehicle: Klucel (hydroxypropylcellulose) (HPC)
  T/C: 93 % of control
[1]
  T/C: 88 % of control and 91 % of control
[2]
  T/C: 96 % of control

## CCO/C=C1\SC(=S)N(c2cccc(C)c2)C1=O
[3]
  T/C: 112 % of control
[1]
  T/C: 101 % of control
[4]
  T/C: 87 % of control
[2]
  T/C: 113 % of control
[5]
  T/C: 95 % of control

## CCOC(=O)N/N=C(/C)c1ccc(C)cc1
[6]
  T/C: 95 % of control and 121 % of control
dose: 100.0 mg/kg/injection, schedule: Q01DX001 (ip), vehicle: saline with Tween-80
  T/C: 103 % of control
[7]
  T/C: 105 % of control and 89 % of control
[8]
  T/C: 95 % of control and 104 % of control
[9]
  T/C: 97 % of control
[10]
  T/C: 101 % of control
[11]
  T/C: 101 % of control and 110 % of control
[12]
  T/C: 101 % of control and 110 % of control
[13]
  T/C: 97 % of control
dose: 400.0 mg/kg/injection, schedule: Q01DX001 (ip), vehicle: saline with Tween-80
  T/C: 102 % of control
[14]
  T/C: 110 % of control

## CCN(CC)c1cccc(N)c1
dose: 25.0 mg/kg/injection, schedule: Q01DX009 (sc), vehicle: olive oil, sesame oil, peanut oil
  T/C: 100 % of control
dose: 50.0 mg/kg/injection, schedule: Q01DX009 (sc), vehicle: olive oil, sesame oil, peanut oil
  T/C: 104 % of control
dose: 100.0 mg/kg/injection, schedule: Q01DX009 (sc), vehicle: olive oil, sesame oil, peanut oil
  T/C: 114 % of control
dose: 100.0 mg/kg/injection, schedule: Q04DX003 (sc), vehicle: olive oil, sesame oil, peanut oil
  T/C: 110 % of control

## CCC(SC(CC)C(=O)O)C(=O)O (configuration not stated)
[15]
  T/C: 98 % of control
[16]
  T/C: 94 % of control

## OC(c1ccccc1)(c1ccccc1)C1c2ccccc2-c2[nH]c3ccccc3c21 (configuration not stated)
[10]
  T/C: 91 % of control

## C#CC(N)=O
dose: 3.0 mg/kg/injection, schedule: Q01DX009 (ip), vehicle: saline
  T/C: 100 % of control
dose: 6.0 mg/kg/injection, schedule: Q01DX009 (ip), vehicle: saline
  T/C: 96 % of control
dose: 12.0 mg/kg/injection, schedule: Q01DX009 (ip), vehicle: saline
  T/C: 94 % of control
dose: 25.0 mg/kg/injection, schedule: Q04DX003 (ip), vehicle: saline
  T/C: 107 % of control
dose: 50.0 mg/kg/injection, schedule: Q04DX003 (ip), vehicle: saline
  T/C: 106 % of control
dose: 75.0 mg/kg/injection, schedule: Q01DX001 (ip), vehicle: saline
  T/C: 107 % of control

## C=CC(=O)N1CCN(C(=O)C=C)CC1 (tested in a mixture with another compound)
dose: 0.04 mg/kg/injection, schedule: Q04DX002 (ip), vehicle: saline
  T/C: 101 % of control
dose: 0.09 mg/kg/injection, schedule: Q04DX002 (ip), vehicle: saline
  T/C: 97 % of control
dose: 0.18 mg/kg/injection, schedule: Q04DX002 (ip), vehicle: saline
  T/C: 97 % of control and 100 % of control
dose: 0.75 mg/kg/injection, schedule: Q04DX002 (ip), vehicle: saline
  T/C: 109 % of control
dose: 1.5 mg/kg/injection, schedule: Q04DX002 (ip), vehicle: saline
  T/C: 103 % of control
dose: 3.12 mg/kg/injection, schedule: Q04DX002 (ip), vehicle: saline
  T/C: 106 % of control
dose: 6.25 mg/kg/injection, schedule: Q04DX002 (ip), vehicle: saline + alcohol
  T/C: 97 % of control
dose: 6.25 mg/kg/injection, schedule: Q04DX002 (ip), vehicle: saline
  T/C: 103 % of control
dose: 12.5 mg/kg/injection, schedule: Q04DX002 (ip), vehicle: saline + alcohol
  T/C: 101 % of control
dose: 12.5 mg/kg/injection, schedule: Q04DX002 (ip), vehicle: saline with Tween-80
  T/C: 94 % of control
dose: 12.5 mg/kg/injection, schedule: Q04DX002 (ip), vehicle: saline
  T/C: 103 % of control
dose: 25.0 mg/kg/injection, schedule: Q04DX002 (ip), vehicle: saline + alcohol
  T/C: 104 % of control and 89 % of control
dose: 25.0 mg/kg/injection, schedule: Q04DX002 (ip), vehicle: saline with Tween-80
  T/C: 109 % of control
dose: 50.0 mg/kg/injection, schedule: Q04DX002 (ip), vehicle: saline + alcohol
  T/C: 92 % of control
dose: 50.0 mg/kg/injection, schedule: Q04DX002 (ip), vehicle: saline with Tween-80
  T/C: 91 % of control
dose: 50.0 mg/kg/injection, schedule: Q04DX002 (ip), vehicle: saline
  T/C: 96 % of control and 105 % of control
dose: 100.0 mg/kg/injection, schedule: Q04DX002 (ip), vehicle: saline + alcohol
  T/C: 100 % of control
dose: 100.0 mg/kg/injection, schedule: Q04DX002 (ip), vehicle: saline
  T/C: 100 % of control and 97 % of control and 105 % of control
dose: 200.0 mg/kg/injection, schedule: Q04DX002 (ip), vehicle: saline
  T/C: 97 % of control and 90 % of control
dose: 400.0 mg/kg/injection, schedule: Q04DX002 (ip), vehicle: saline
  T/C: 90 % of control

## O=C(Nc1nccs1)Nc1cccc(Cl)c1Cl
dose: 25.0 mg/kg/injection, schedule: Q01DX009 (ip), vehicle: Klucel (hydroxypropylcellulose) (HPC)
  T/C: 106 % of control
dose: 50.0 mg/kg/injection, schedule: Q01DX009 (ip), vehicle: Klucel (hydroxypropylcellulose) (HPC)
  T/C: 101 % of control

## CC(=O)/C=C/C1C(C)=CCCC1(C)C (configuration not stated)
[9]
  T/C: 97 % of control
[13]
  T/C: 92 % of control
[14]
  T/C: 100 % of control

## CCCSc1ccc2c3c(cccc13)C(=O)OC2=O
[3]
  T/C: 101 % of control
[4]
  T/C: 98 % of control

## COP1(=O)CC=C(C)C1 (configuration not stated)
[15]
  T/C: 98 % of control
[16]
  T/C: 98 % of control
dose: 400.0 mg/kg/injection, schedule: Q01DX001 (ip), vehicle: saline
  T/C: 106 % of control

## CC(C)=CCCC(C)CCOc1cccc(C)c1 (configuration not stated)
[8]
  T/C: 105 % of control
[12]
  T/C: 99 % of control
[17]
  T/C: 89 % of control

## O=C(c1ccccc1)c1[nH]c2ccccc2c1-c1ccccc1
[8]
  T/C: 103 % of control
[12]
  T/C: 107 % of control
[17]
  T/C: 100 % of control

## O=[N+]([O-])c1ccc(N/N=C(/CCCCl)c2ccccc2)c([N+](=O)[O-])c1
[9]
  T/C: 96 % of control
[13]
  T/C: 95 % of control
[14]
  T/C: 91 % of control

## Cc1cccnc1N
[8]
  T/C: 104 % of control
[12]
  T/C: 107 % of control

## CCCC(=O)c1ccc2oc3ccccc3c2c1
[3]
  T/C: 100 % of control
[1]
  T/C: 102 % of control
[4]
  T/C: 94 % of control
[2]
  T/C: 102 % of control
dose: 400.0 mg/kg/injection, schedule: Q01DX009 (ip), vehicle: Klucel (hydroxypropylcellulose) (HPC)
  T/C: 96 % of control
[5]
  T/C: 98 % of control

## Nc1nc(-c2ccccc2)c(CCCOc2ccc(NC(=O)CBr)cc2)c(=O)[nH]1
dose: 50.0 mg/kg/injection, schedule: Q01DX001 (ip), vehicle: carboxymethylcellulose (CMC)
  T/C: 91 % of control
dose: 100.0 mg/kg/injection, schedule: Q01DX001 (ip), vehicle: carboxymethylcellulose (CMC)
  T/C: 96 % of control
dose: 200.0 mg/kg/injection, schedule: Q01DX001 (ip), vehicle: carboxymethylcellulose (CMC)
  T/C: 86 % of control
dose: 400.0 mg/kg/injection, schedule: Q01DX001 (ip), vehicle: carboxymethylcellulose (CMC)
  T/C: 86 % of control

## BrCC(Br)CBr
[6]
  T/C: 94 % of control
[7]
  T/C: 91 % of control
[9]
  T/C: 94 % of control
[11]
  T/C: 98 % of control
[13]
  T/C: 102 % of control
